Assay results as given in ChEMBL document CHEMBL1201862, “PubChem BioAssay data set” (2004).
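Step 1: Grow cells in 96-well plates. Step 2: Expose to compound for 48 hours at 5 concentrations. Step 3: Interpolate endpoints linearly; if unreached, use highest concentration. Here, GI50 denotes the concentration required for 50% inhibition of growth.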 The source made the active and inactive calls. Rule as the data show it: active = GI50 up to about 1.1 µM and inactive = higher.

Legend:
Assay in all cases: inhibition of tumour cell growth, NCI panel, 48 h
[1] = system: HT-29
[2] = system: OVCAR-5
[3] = system: DMS-273
[4] = system: HCT-15
[5] = system: SF-539
[6] = system: ACHN
[7] = system: SK-MEL-2
[8] = system: LXFL 529
[9] = system: SNB-19
[10] = system: KM12
[11] = system: 786-0
[12] = system: RXF 393
[13] = system: NCI-H460
[14] = system: M19-MEL
[15] = system: DLD-1
[16] = system: SN12C

Row | SMILES | GI50 [1] | GI50 [2] | GI50 [3] | GI50 [4] | GI50 [5] | GI50 [6] | GI50 [7] | GI50 [8] | GI50 [9] | GI50 [10] | GI50 [11] | GI50 [12] | GI50 [13] | GI50 [14] | GI50 [15] | GI50 [16]
1 | Cc1ccc([N+](=O)[O-])cc1NC(=O)/C(CC(=O)c1sc(C(N)=S)nc1C)=N\N | 72.3 µM (inactive) | > 100 µM (inactive) | 29.7 µM (inactive) | > 100 µM | > 100 µM (inactive) | 96.2 µM (inactive) | > 100 µM (inactive) | 41.7 µM (inactive) | > 100 µM (inactive) | 54.1 µM (inactive) | 40.6 µM (inactive) | > 100 µM (inactive) | 35.1 µM (inactive) | 71.8 µM (inactive) | > 100 µM (inactive) | 
2 | CCCCCC[C@@H]1CCC2C(CO)[C@@H](O)CC[C@@H]2C1 (some centres not stated) | 18.2 µM (inactive) | 18.5 µM (inactive) | 20.2 µM (inactive) | 19 µM | 18.7 µM (inactive) | 19.1 µM (inactive) | 26.7 µM (inactive) | 18.5 µM (inactive) | 18.1 µM (inactive) | 18.7 µM (inactive) | 19.3 µM (inactive) |  | 15.5 µM (inactive) | 18.2 µM (inactive) | 18.8 µM (inactive) | 16.6 µM (inactive)
3 | COc1cc2cccc(/N=C\c3ccccc3Cl)c2cc1OC | 79.6 µM (inactive) | > 100 µM (inactive) |  | 25.5 µM | > 100 µM (inactive) | > 100 µM (inactive) | > 100 µM (inactive) | > 100 µM (inactive) | > 100 µM (inactive) | > 100 µM (inactive) | > 100 µM (inactive) | > 100 µM (inactive) | > 100 µM (inactive) | > 100 µM (inactive) | > 100 µM (inactive) | > 100 µM (inactive)
4 | CC(=O)c1ccc(NC(=O)C(=O)Nn2c(S)nc3ccccc3c2=O)cc1 | > 100 µM (inactive) | > 100 µM (inactive) |  | > 100 µM | > 100 µM (inactive) | > 100 µM (inactive) | > 100 µM (inactive) | > 100 µM (inactive) | > 100 µM (inactive) | > 100 µM (inactive) | > 100 µM (inactive) | > 100 µM (inactive) | > 100 µM (inactive) | > 100 µM (inactive) | > 100 µM (inactive) | > 100 µM (inactive)
5 | Cc1cccc(NC(=O)CSc2nnc(Cc3ccccc3)o2)c1 | > 100 µM (inactive) | > 100 µM (inactive) | > 100 µM (inactive) | > 100 µM | > 100 µM (inactive) | > 100 µM (inactive) | > 100 µM (inactive) | > 100 µM (inactive) | > 100 µM (inactive) | > 100 µM (inactive) | > 100 µM (inactive) | > 100 µM (inactive) | > 100 µM (inactive) |  | > 100 µM (inactive) | > 100 µM (inactive)
6 | N#CC1(C2CC(=O)N(c3ccccc3)C2=O)CCCCC1=O (configuration not stated) | > 100 µM (inactive) | > 100 µM (inactive) | > 100 µM (inactive) | > 100 µM | > 100 µM (inactive) | > 100 µM (inactive) |  | > 100 µM (inactive) | > 100 µM (inactive) | > 100 µM (inactive) | > 100 µM (inactive) | > 100 µM (inactive) | > 100 µM (inactive) | > 100 µM (inactive) | > 100 µM (inactive) | 0.791 µM (active)
7 | N#Cc1nc(C2OC(COC(=O)c3ccccc3)C(OC(=O)c3ccccc3)C2OC(=O)c2ccccc2)oc1N (configuration not stated) | 9.16 µM (inactive) | 87.7 µM (inactive) | 26.4 µM (inactive) | 16.7 µM | 58.6 µM (inactive) | 33.7 µM (inactive) | 27.3 µM (inactive) |  | > 100 µM (inactive) | 18.3 µM (inactive) | 27 µM (inactive) | 14.7 µM (inactive) | 76.4 µM (inactive) | 36.7 µM (inactive) | 37.2 µM (inactive) | 48.2 µM (inactive)
8 | C=CCNC(=S)N1CC(C)C(=O)Nc2ccccc21 (configuration not stated) | > 100 µM (inactive) | > 100 µM (inactive) | > 100 µM (inactive) | > 100 µM | > 100 µM (inactive) | > 100 µM (inactive) | > 100 µM (inactive) | > 100 µM (inactive) | > 100 µM (inactive) | > 100 µM (inactive) | > 100 µM (inactive) | > 100 µM (inactive) | > 100 µM (inactive) |  |  | > 100 µM (inactive)
9 | O=C(Cc1ccccc1)N/N=C(/c1nc2ccc([N+](=O)[O-])cc2nc1O)C(O)c1ccc(C(O)/C(=N/NC(=O)Cc2ccccc2)c2nc3ccc([N+](=O)[O-])cc3nc2O)cc1 (configuration not stated) | 53.8 µM (inactive) | 40.4 µM (inactive) |  | 19.4 µM | 56.8 µM (inactive) | 35.2 µM (inactive) | 40 µM (inactive) | 24.7 µM (inactive) | > 100 µM (inactive) |  | > 100 µM (inactive) | > 100 µM (inactive) |  | 58.9 µM (inactive) | 56.8 µM (inactive) | > 100 µM (inactive)
